Source: patent publication US20060039974A1, “Sustained release preparation” (TAKEDA PHARMACEUTICAL COMPANY LIMITED, priority 2002, published 2006)

Experiment: Dissolution test, Paddle Method, CTAB-containing The Japanese Pharmacopoeia 2nd fluid
Type: physicochemical
Conditions: after 10 min; control group; 0.1% CTAB-containing JP 2nd fluid 500 mL, 100 rpm
Method: To be specific, the tablets obtained in Examples 1-3 were subjected to a dissolution test (Paddle Method, 0.1% cetyltrimethylammoniumbromide (CTAB)-containing The Japanese Pharmacopoeia Degradation Test2nd fluid (hereinafter to be abbreviated as CTAB-containing The Japanese Pharmacopoeia Degradation Test 2nd fluid) 500 mL, number of rotation 100 rpm). In addition, as a control group, the powder of compound A was subjected to a similar dissolution test and found to show a dissolution rate of 99% after 10 min.
To be specific, a dissolution test of the tablet obtained in Example 13 was performed in the same manner as in Experimental Example 1. In addition, as a control group, the tablet of Reference Example 1 was subjected to a similar dissolution test and found to show a dissolution rate of 100% after 10 min.
To be specific, each tablet obtained in Examples 7 and 21 was subjected to a dissolution test (Paddle Method, The Japanese Pharmacopoeia Degradation Test 1st fluid (hereinafter to be abbreviated as The Japanese Pharmacopoeia 1st fluid) 500 mL, number of rotation 100 rpm). In addition, in the same manner as above except that the eluent was a CTAB-containing The Japanese Pharmacopoeia 2nd fluid, a dissolution test of the tablets obtained in Examples 7 and 21 was performed. The results are shown in Table 4 and Table 5, respectively.

dissolution rate: 99%
Structure (SMILES): CC(C)Cn1c(CN)c(-c2ccccc2)c2cc(C(N)=O)ccc2c1=O [Compound A, 3-(aminomethyl)-2-isobutyl-1-oxo-4-phenyl-1,2-dihydroisoquinoline-6-carboxamide]
